Results: US6420570B1, “Psoralen compounds” (priority 1993, dated 2002)
Counter-ions that a name gives are not always drawn. Like-named read-outs stand apart in the source and are kept apart here.

Legend:
TA1538 = test: Ames assay, dark mutagenicity, strain TA1538
Procedure: (§1) In this example the compounds of the present invention are tested for their dark mutagenicity using an Ames assay. The procedures used for the Salmonella mutagenicity test as described in detail by Maron and Ames were followed exactly. Maron, D. M. and B. N. Ames, Mutation Research 113:173 (1983). A brief description for each procedure is given here. The tester strains TA97a, TA98, TA100, TA102, TA1537 and TA1538 were obtained from Dr. Ames. TA97a, TA98, TA1537 and TA1538 are frameshift tester strains. TA100 and TA102 are base-substitution tester strains. Upon receipt each strain was cultured under a variety of conditions to confirm the genotypes specific to the strains.
(§2) The first tests done with the strains were to determine the range of spontaneous reversion for each of the strains. With each mutagenicity experiment the spontaneous reversion of the tester strains to histidine independence was measured and expressed as the number of spontaneous revertants per plate. This served as the background controls.
(§3) For all experiments, the pre-incubation procedure was used. In this procedure one vial of each tester strain was thawed and 20 μL of this culture was added to 6 mL of Oxoid Nutrient Broth #2. This solution was allowed to shake for 10 hours at 37° C. In the pre-incubation procedure, 0.1 mL of this overnight culture was added to each of the required number of sterile test tubes. To half of the tubes 0.5 mL of a 10% S-9 solution containing Aroclor 1254 induced rat liver extract (Molecular Toxicology Inc., Annapolis, MD), and MgCl2, KCl, glucose-6-phosphate, NADP, and sodium phosphate buffer (Sigma, St. Louis. Mo.) were added. To the other half of the tubes 0.5 mL of 0.2M sodium phospate buffer, pH 7.4, was used in place of the S-9 mixture (the -S9 samples) Finally 0.1 mL of the test solution containing either 0.0.1, 0.5, 1, 5, 10, 50, 100, 250, or 500 μg/mL of the test compound was added. The 0.7 mL mixture pre-incubated while shaking for 20 minutes at 37° C. After shaking, 2 mL of molten top agar supplemented with histidine and biotin were added to the 0.7 mL mixture and immediately poured onto a minimal glucose agar plate (volume of base agar was 20 ml.). The top agar was allowed 30 minutes to solidify and then the plates were inverted and incubated for 44 hours at 37° C. After incubation the number of revertant colonies on each plate were counted. […] (“n” represents the number of replicates performed for each data point.)
(§4) Maron and Ames (1983) describe the conflicting views with regard to the statistical treatment of data generated from the test.

TA98 = test: Ames assay, dark mutagenicity, strain TA98
Procedure: as §1, §2, §3, §4

TA1537 = test: Ames assay, dark mutagenicity, strain TA1537
Procedure: as §1, §2, §3, §4

[1] = system: Salmonella tester strains; test: Ames assay, dark mutagenicity, overall over tester strains; conditions: base-substitution tester strains TA100 and TA102
Procedure: as §1, §2, §3, §4

R17 = R17 bacteriophage inactivation screen, varying compound concentration; type: cell-based; conditions: starting titer approx. 7.1 logs
Procedure: The assay used to predict pathogen inactivation efficiency and to determine nucleic acid binding of the photoreactive binding compounds of the present invention was that in which a bacteriophage, R17, in solution with the desired substrate was irradiated. The ability of the phage to subsequently infect bacteria and inhibit their growth was measured. The bacteriophage was selected for its relatively accessible nucleic acid such that the culture growth inhibition would accurately reflect nucleic acid damage by the test compounds. The bacteriophage assay for nucleic acid binding to test compounds offers a safe and inexpensive procedure to identify compounds likely to display efficient pathogen inactivation. […] An aliquot (0.5 mL) was transferred to a 1.5 mL, snap-top polyethylene tube. An aliquot (0.004-0.040 mL) of the test compound stock solution prepared in water, ethanol or dimethylsulfoxide at 0.80-8.0 mM was added to the tube. Compounds were tested at concentrations between 4 μM and 320 μM. (AMT is commercially available from HRI, Inc., Concord, Calif.; 8-MOP is commercially available from Sigma, St. Louis, Mo.). The tubes were placed in a light device as described in EXAMPLE 1 and irradiated for between 1 and 10 minutes. […] To make the dilutions, a 0.100 mL aliquot of the irradiated solution of phage and test compound was added to the first dilution tube of 0.4 mL of media then 0.020 mL of this solution was added to the second tube of 0.5 mL medium (1:25). The second solution was then diluted serially (1:25) into the remaining tubes. […] After the top agar hardened, the plates were incubated at 37° C. overnight. The plaque forming units were then counted the following morning and the titer of the phage remaining after phototreatment was calculated based on the dilution factors. The following controls were run: the “phage only” in which phage was not treated with test compound and not irradiated (listed as “starting titer” in the tables below); the “UV only” in which the phage was irradiated in the absence of test compound; and the “dark” control in which the phage/test compound solution was not irradiated before it was diluted and plated.

cell-free virus (HIV) = type: cell-based; conditions: 1 minute irradiation
Procedure: Pathogen inactivation efficiency of several compounds of the present invention was evaluated by examining the ability of the compounds to inactivate cell-free virus (HIV). Inactivation of cell-free HIV was performed as follows.
As in the R17 assay, small aliquots of the compounds listed in TABLES 8 and 9, below, at the concentrations listed in the table, were added to stock HIV-1 to a total of 0.5 mL. The stock HIV (10^5-10^7 plaque forming units/mL) was in DMEM/15% FBS. […] Controls included HIV-1 stock only, HIV-1 plus UVA only, and HIV-1 plus the highest concentration of each psoralen tested, with no UVA. Post irradiation, all samples were stores frozen at −70° C. until assayed for infectivity by a microtiter plaque assay. Aliquots for measurement of residual HIV infectivity in the samples treated with a compound of the present invention were withdrawn and cultured.
Residual HIV infectivity was assayed using an MT-2 infectivity assay. […] The assay medium was 85% DMEM (with a high glucose concentration) containing 100 μg of streptomycin, 100 U of penicillin, 50 μg of gentamicin, and 1 μg of amphotericin B per mL, 15% FBS and 2 μg of Polybrene (Sigma Chemical Co., St. Louis, Mo.) per mL. Test and control samples from the inactivation procedure were diluted in 50% assay medium and 50% normal human pooled plasma. The samples were serially diluted directly in 96-well plates (Corning Glass Works, corning, N.Y.). The plates were mixed on an oscillatory shaker for 30 seconds and incubated at 37° C. in a 5% CO2 atmosphere for 1 to 18 hours. […] After an additional 1 hour of incubation at 37° C. in 5% CO2, 0.075 mL of assay medium containing 1.6% SeaPlaque agarose (FMC Bioproducts, Rockland, me.) and prewarmed to 38.5° C. was added to each well. The plates were kept at 37° C. for a few minutes until several plates had accumulated and then centrifuged in plate carriers at 600×g for 20 minutes in a centrifuge precooled to 10° C. In the centrifuge, cell monolayers formed prior to gelling of the agarose layer. The plates were incubated for 5 days at 37° C. in 5% CO2 and stained by the addition of 0.05 mL of 50 μg/mL propidium iodide (Sigma Chemical Co.) in phosphate-buffered saline (pH 7.4) to each well. After 24 to 48 hours, the red fluorescence-stained microplaques were visualized by placing the plates on an 8,000 μW/cm^2 304 nm UV light box (Fotodyne, Inc., New Berlin, Wis.). The plaques were counted at a magnification of ×20 to ×25 through a stereomicroscope. “n” represents the number of runs for which the data point is an average.

[2] = Table 8, HIV starting titer approximately 5 logs
[3] = Table 9, HIV starting titer approximately 5.4 logs

Compound: Cc1oc2c(C)c3oc(=O)cc(C)c3cc2c1CNCCCCN [Compound 6, 4′-(6-Aminohexyl-2-aza)-4,5′,8-trimethylpsoralen Dihydrochloride]
- revertant colonies per plate (TA1538; TA1538 +S9, 5 μg/plate): 0
- revertant colonies per plate (TA1538; TA1538 +S9, 10 μg/plate): 8
- revertant colonies per plate (TA1538; TA1538 −S9, 5 μg/plate): −5
- revertant colonies per plate (TA98; TA98 +S9, 10 μg/plate): −5
- revertant colonies per plate (TA98; TA98 +S9, 250 μg/plate): 40
- revertant colonies per plate (TA98; TA98 +S9, 500 μg/plate): 52
- revertant colonies per plate (TA98; TA98 −S9, 10 μg/plate): 12
- revertant colonies per plate (TA98; TA98 −S9, 50 μg/plate): 12
- revertant colonies per plate (TA98; TA98 −S9, 100 μg/plate): 22
- revertant colonies per plate (TA98; TA98 −S9, 250 μg/plate): 12
- revertant colonies per plate (TA98; TA98 −S9, 500 μg/plate): 9
- revertant colonies per plate (TA1537; TA1537 +S9, 10 μg/plate): −1
- revertant colonies per plate (TA1537; TA1537 +S9, 50 μg/plate): 17
- revertant colonies per plate (TA1537; TA1537 +S9, 250 μg/plate): 99
- revertant colonies per plate (TA1537; TA1537 +S9, 500 μg/plate): 369
- dose showing a response (TA1537; TA1537, in the presence of S9): 50 μg/plate
- revertant colonies per plate (TA1537; TA1537 −S9, 10 μg/plate): 141
- revertant colonies per plate (TA1537; TA1537 −S9, 50 μg/plate): 2010
- revertant colonies per plate (TA1537; TA1537 −S9, 100 μg/plate): 795
- revertant colonies per plate (TA1537; TA1537 −S9, 250 μg/plate): 228
- revertant colonies per plate (TA1537; TA1537 −S9, 500 μg/plate): 43
- base-substitution mutagenicity [1]: no base substitution mutagenicity
- R17 log kill 16 uM (R17; Table 6, 1 minute irradiation = 1.2 J/cm^2): >6.1 log
- R17 log kill 32 uM (R17; Table 6, 32 uM, 1 minute irradiation = 1.2 J/cm^2): >6.1 log
- R17 log kill 64 uM (R17; Table 6, 64 uM, 1 minute irradiation = 1.2 J/cm^2): >6.1 log
- R17 log kill 8 uM (R17; Table 7, 8 uM, 1 minute irradiation): >6 log
- R17 log kill 16 uM (R17; Table 7, 1 minute irradiation): >6 log
- HIV Log Kill 16 μM (cell-free virus (HIV); [2]): 2.0 log
- HIV Log Kill 32 μM (cell-free virus (HIV); [2]): 3.1 log
- HIV Log Kill 64 μM (cell-free virus (HIV); [2]): >3.8 log
- HIV Log Kill 16 μM (cell-free virus (HIV); [3]): 2.1 log
- HIV Log Kill 32 μM (cell-free virus (HIV); [3]): 3.2 log
- HIV Log Kill 64 μM (cell-free virus (HIV); [3]): >2.8 log
